# Patent publication US20220087990A1, “APPLICATION OF RIFAMYCIN-QUINOLIZIDONE CONJUGATE MOLECULE AND PHARMACEUTICALLY ACCEPTABLE SALT THEREOF” (priority 2019, published 2022)
# Entries after “also recorded” stand apart in the source; their conditions may differ. Read-outs that look alike come from different tables or passages of the source.
# Columns and labels:
# Assay type in all cases: cell-based
# [1] = test system: Staphylococcus aureus ATCC 29213; experiment: MIC measured by fluid broth microdilution method (quality control); conditions: ATCC29213
# [2] = test system: Staphylococcus aureus ATCC 29213; experiment: MIC measured by agar dilution method, quality control strain; conditions: strain 100, MSSA QC strain
# Procedure: (§1) Spontaneous mutation and minimal inhibit concentration (MIC) tested by agar dilution method, the above compounds are respectively prepared into a stock solution (100X) with a concentration 100 times the highest final concentration in corresponding solvents and used on the same day. Before use, I is further diluted with DMSO; and oxacillin, rifampicin and levofloxacin are further diluted with water.
# (§2) Bacterial isolates: Staphylococcus aureus isolates are retrieved from the −80° C. storage room of Micromyx Culture Collection, thawed, plated onto Tryptic Soy Agar+5% sheep blood (Remel; Lenexa, Kans.), and then incubated aerobically at 35° C. overnight. S. aureus ATCC 29213 (MRSA; MMX 0100) was included during testing only for the purpose of quality control. Test Media: The isolates were tested in both the agar dilution MIC assay and the spontaneous mutation assay using Mueller-Hinton Agar (MHA; BD/BBL; Lot No. 6229829 & 4216798). Inocula of each isolate were suspended in cation-adjusted Mueller-Hinton Broth (CAMHB) (BD/BBL; Lot Nos. 5257869 & 6258541). Sodium chloride (Sigma-Aldrich; Lot No. SLBL0434V) was added to CAMHB at a final concentration of 2% when testing oxacillin. Dilutions of bacterial cell suspensions for the purpose of performing colony counts were also made in CAMHB.
# (§3) MIC measured by agar dilution method: according to the recommendation from the Clinical and Laboratory Standards Institute (CLSI), the MIC value is measured by the agar dilution method. […] Each test agent was combined with molten MHA agar (50-55° C.) at a ratio of 0.2 mL of 100× test agent to 19.8 mL agar in a sterile tube, mixed gently, and then poured into a sterile petri plate (BD Falcon). Plates were allowed to solidify at room temperature. A 0.5 McFarland standard bacterial suspension was prepared, diluted 1:10 in CAMHB, and transferred to the wells of a stainless steel replicator block before stamping onto plates containing drug, resulting in 10^4 CFU/spot. After allowing the inoculum to dry on the surface of the agar, the plates were inverted, incubated aerobically at 35° C. for 20-24 hr, and inspected for growth.
# In parallel experiments, a standard bacterium suspension with a […] turbidity of 0.5 is prepared as a standard inoculum for agar dilution analysis (10^4 CFU/point). […] In this step, the broths and drugs used in the spontaneous mutation analysis are used to confirm that the concentration of the drug stock solution can inhibit the growth of the standard inoculum. The quality of the levofloxacin stock solution is controlled by a standard inoculum and levofloxacin of 8-0.008 μg/mL, and separate agar dilution analysis is performed. […]
# [3] = test system: methicillin-resistant Staphylococcus aureus (MRSA) isolates; experiment: MIC measured by agar dilution method (CLSI); conditions: Staphylococcus aureus, MRSA, agar dilution
# Procedure: as §1, §2, §3
# [4] = test system: Staphylococcus aureus MMX 3265, 3270, 3278, and 6312; conditions: for Cell counts (mean): 1 used if no colonies
# Procedure: Each test agent stock solution was prepared at 100× the final desired test concentration for the spontaneous mutation frequency assay agar plates.
# The drug/agar mixture was dispensed into sterile 150×15 mm plates (BD Falcon) to a volume of 50 mL in each plate. The target inoculum for each spontaneous mutation plate was at least 10^9 CFU. Plates were allowed to solidify at room temperature.
# The inocula for the spontaneous mutation frequency assay were prepared by using sterile cotton swabs to harvest colonies from freshly grown isolates and preparing a dense cell suspension (approximately 1.70 on the turbidity meter) in 6 mL of CAMHB. The viable count of this suspension was determined by plating serial ten-fold dilutions onto MHA and taking the average of duplicate counts. For the spontaneous mutation assay, 0.25 mL of inoculum was spread onto the surface of duplicate 150×15 mm plates for each drug concentration tested, allowed to dry, and then the plates were inverted and incubated at 35° C. for 48 hr prior to counting viable colonies. The spontaneous mutation frequency was calculated using the following equation:
# Spontaneous mutation frequency=average number of colonies on selected plates/total number of cells incubated onto each plate
# If there were no colonies on the antibiotic selection plates, the spontaneous mutation frequency was reported as less than or equal to the mutation frequency that would have resulted from the presence of one colony (e.g. 1/total number of cells inoculated onto the plate).
# [5] = isolate 3265 LEV^R RIF^S, drug 0.5 μg/mL in plates (combination 0.5 each), inoculation 5.40E+09 CFU
# [6] = isolate 3265 LEV^R RIF^S, drug 2 μg/mL in plates (combination 2 each), inoculation 5.40E+09 CFU
# [7] = isolate 3265 LEV^R RIF^S, drug 8 μg/mL in plates (combination 8 each), inoculation 5.40E+09 CFU
# [8] = isolate 3270 LEV^R RIF^S, drug 0.5 μg/mL in plates (combination 0.5 each), inoculation 5.30E+09 CFU
# [9] = isolate 3270 LEV^R RIF^S, drug 2 μg/mL in plates (combination 2 each), inoculation 5.30E+09 CFU
# [10] = isolate 3270 LEV^R RIF^S, drug 8 μg/mL in plates (combination 8 each), inoculation 5.30E+09 CFU
# [11] = isolate 3278 LEV^S RIF^S, drug 0.5 μg/mL in plates (combination 0.5 each), inoculation 3.80E+09 CFU
# [12] = isolate 3278 LEV^S RIF^S, drug 2 μg/mL in plates (combination 2 each), inoculation 3.80E+09 CFU
# [13] = isolate 3278 LEV^S RIF^S, drug 8 μg/mL in plates (combination 8 each), inoculation 3.80E+09 CFU
# [14] = isolate 6312 LEV^R RIF^S, drug 0.5 μg/mL in plates (combination 0.5 each), inoculation 3.90E+09 CFU
# [15] = isolate 6312 LEV^R RIF^S, drug 2 μg/mL in plates (combination 2 each), inoculation 3.90E+09 CFU
# [16] = isolate 6312 LEV^R RIF^S, drug 8 μg/mL in plates (combination 8 each), inoculation 3.90E+09 CFU
smiles,measurement,setting,value
CO[C@H]1/C=C/O[C@@]2(C)Oc3c(C)c(O)c4c(O)c(c(/C=N/N5CCC(N(C)C6([C@@H]7CCN(c8c(F)cn9c(=O)c(C(=O)O)cc(C%10CC%10)c9c8C)C7)CC6)CC5)c(O)c4c3C2=O)NC(=O)/C(C)=C\C=C\[C@H](C)[C@H](O)[C@@H](C)[C@@H](O)[C@@H](C)[C@H](OC(C)=O)[C@@H]1C [I],MIC,[1],0.25 mg/L
same,MIC,[2],0.015 mg/L
same,MIC,"[3]; read-out: MIC over all strains under test, 23 MRSA isolates",0.015 mg/L
same,MIC,"[3]; strain 3085, LEV^S RIF^S",0.015 mg/L
same,MIC,"[3]; strain 3090, LEV^R RIF^S",0.015 mg/L
same,MIC,"[3]; strain 3094, LEV^R RIF^S",0.015 mg/L
same,MIC,"[3]; strain 3098, LEV^S RIF^S",0.015 mg/L
same,MIC,"[3]; strain 3265, LEV^R RIF^S",0.015 mg/L
same,MIC,"[3]; strain 3266, LEVR RIFS",0.015 mg/L
same,MIC,"[3]; strain 3270, LEV^R RIF^S",0.015 mg/L
same,MIC,"[3]; strain 3271, LEV^R RIF^S",0.015 mg/L
same,MIC,"[3]; strain 3277, LEV^S RIF^S",0.015 mg/L
same,MIC,"[3]; strain 3278, LEV^S RIF^S",0.015 mg/L
same,MIC,"[3]; strain 6312, LEV^R RIF^S",0.015 mg/L
same,MIC,"[3]; strain 6313, LEV^R RIF^S",0.015 mg/L
same,MIC,"[3]; strain 6315, LEV^R RIF^S",0.015 mg/L
same,MIC,"[3]; strain 6498, LEV^R RIF^S",0.015 mg/L
same,MIC,"[3]; strain 6501, LEV^R RIF^S",0.015 mg/L
same,MIC,"[3]; strain 6505, LEV^R RIF^S",0.015 mg/L
same,MIC,"[3]; strain 7771, LEV^R RIF^S",0.015 mg/L
same,MIC,"[3]; strain 7772, LEV^S RIF^S",0.015 mg/L
same,MIC,"[3]; strain 7773, LEV^R RIF^S",0.015 mg/L
same,MIC,"[3]; strain 7774, LEV^R RIF^S",0.015 mg/L
same,MIC,"[3]; strain 7775, LEV^R",0.015 mg/L
same,spontaneous mutants / development of drug resistance (in words),"[4]; four MRSA isolates, 0.5, 2 or 8 μg/mL",No spontaneous mutants are recovered; also recorded: none of the four MRSA strains under test develops drug resistance
same,Cell counts (mean),"[4]; isolate 3265, drug 0.5 μg/mL",1^1
same,Cell counts (mean),"[4]; isolate 3265, drug 2 μg/mL",1
same,Cell counts (mean),"[4]; isolate 3265, drug 8 μg/mL",1
same,Cell counts plate A,[4]; [5],0
same,Cell counts plate B,[4]; [5],0
same,Mutation frequency,[4]; [5],<1.85E−10
same,Cell counts plate A,[4]; [6],0
same,Cell counts plate B,[4]; [6],0
same,Mutation frequency,[4]; [6],<1.85E−10
same,Cell counts plate A,[4]; [7],0
same,Cell counts plate B,[4]; [7],0
same,Mutation frequency,[4]; [7],<1.85E−10
same,Cell counts (mean),"[4]; isolate 3270, drug 0.5 μg/mL",1
same,Cell counts (mean),"[4]; isolate 3270, drug 2 μg/mL",1
same,Cell counts (mean),"[4]; isolate 3270, drug 8 μg/mL",1
same,Cell counts plate A,[4]; [8],0
same,Cell counts plate B,[4]; [8],0
same,Mutation frequency,[4]; [8],<1.89E−10
same,Cell counts plate A,[4]; [9],0
same,Cell counts plate B,[4]; [9],0
same,Mutation frequency,[4]; [9],<1.89E−10
same,Cell counts plate A,[4]; [10],0
same,Cell counts plate B,[4]; [10],0
same,Mutation frequency,[4]; [10],<1.89E−10
same,Cell counts (mean),"[4]; isolate 3278, drug 0.5 μg/mL",1
same,Cell counts (mean),"[4]; isolate 3278, drug 2 μg/mL",1
same,Cell counts (mean),"[4]; isolate 3278, drug 8 μg/mL",1
same,Cell counts plate A,[4]; [11],0
same,Cell counts plate B,[4]; [11],0
same,Mutation frequency,[4]; [11],<2.63E−10
same,Cell counts plate A,[4]; [12],0
same,Cell counts plate B,[4]; [12],0
same,Mutation frequency,[4]; [12],<2.63E−10
same,Cell counts plate A,[4]; [13],0
same,Cell counts plate B,[4]; [13],0
same,Mutation frequency,[4]; [13],<2.63E−10
same,Cell counts (mean),"[4]; isolate 6312, drug 0.5 μg/mL",1
same,Cell counts (mean),"[4]; isolate 6312, drug 2 μg/mL",1
same,Cell counts (mean),"[4]; isolate 6312, drug 8 μg/mL",1
same,Cell counts plate A,[4]; [14],0
same,Cell counts plate B,[4]; [14],0
same,Mutation frequency,[4]; [14],<2.56E−10
same,Cell counts plate A,[4]; [15],0
same,Cell counts plate B,[4]; [15],0
same,Mutation frequency,[4]; [15],<2.56E−10
same,Cell counts plate A,[4]; [16],0
same,Cell counts plate B,[4]; [16],0
same,Mutation frequency,[4]; [16],<2.56E−10
